Source: the supplement of paper PMC10307832

Compound: CC1(C)CNc2cc(NC(=O)c3cccnc3NCc3ccncc3)ccc21 [Motesanib] + CCNC(=O)c1noc(-c2cc(C(C)C)c(O)cc2O)c1-c1ccc(CN2CCOCC2)cc1 [Luminespib] (partner 0.01 µM)
Test: relative viability (nuclei count vs DMSO), 5 days (fraction); higher = more cells survive
Conditions: first compound 0.01 µM
Procedure, shortened: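 One day after seeding in 1536-well plates, lung cancer cell lines were dosed by pin tool. Dosing was either single-drug or a fixed anchor-drug dose plus five library-drug doses (not always all listed) in √10 steps. After 5 days, nuclei were stained in one fix-and-stain step and counted on 4× images, and relative viability is the nuclei count of treated wells over that of vehicle wells, given as the median of duplicate plates.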

| Cell Line | relative viability |
| --- | --- |
| HCC-44 | 1.07 |
| LU99A | 0.228 |
| BEN | 0.331 |
| HARA | 0.894 |
| SW 900 | 0.172 |
| NCI-H322M | 0.913 |
| NCI-H1792 | 0.447 |
| NCI-H1563 | 0.523 |

Same assay, conditions: first compound 0.03162 µM

| Cell Line | relative viability |
| --- | --- |
| NCI-H2342 | 0.622 |
| NCI-H1623 | 0.506 |
| NCI-H727 | 0.261 |
| NCI-H1650 | 0.179 |
| NCI-H1993 | 0.734 |
| SW 1573 | 0.266 |
| NCI-H838 | 0.295 |
| LCLC-103H | 0.92 |
| NCI-H520 | 0.276 |
| NCI-H2126 | 0.901 |
| EMC-BAC-2 | 1.16 |
| NCI-H2085 | 0.434 |
| NCI-H1666 | 0.978 |
| NCI-H596 | 0.917 |
| LK-2 | 0.191 |
| NCI-H2087 | 0.174 |
| SK-MES-1 | 0.842 |

| Cell Line | relative viability |
| --- | --- |
| H3255 | 0.954 |
| COR-L23 | 0.694 |
| COR-L 105 | 0.894 |
| LOU-NH91 | 0.364 |
| ChaGo-K-1 | 0.656 |
| NCI-H2170 | 0.726 |
| NCI-H2405 | 0.536 |
| HOP-62 | 0.834 |
| HCC-44 | 0.964 |
| NCI-H522 | 1.14 |
| LU99A | 0.187 |
| BEN | 0.46 |
| HARA | 0.628 |
| SW 900 | 0.181 |
| NCI-H322M | 0.951 |
| NCI-H1792 | 0.428 |
| NCI-H1563 | 0.504 |

Same assay, conditions: first compound 0.1 µM

| Cell Line | relative viability |
| --- | --- |
| NCI-H2342 | 0.795 |
| NCI-H1623 | 0.49 |
| NCI-H727 | 0.729 |
| NCI-H1650 | 0.185 |
| NCI-H1993 | 0.826 |
| SW 1573 | 0.207 |
| NCI-H838 | 0.355 |
| LCLC-103H | 0.996 |
| NCI-H520 | 0.27 |
| NCI-H2126 | 0.963 |
| EMC-BAC-2 | 1.14 |
| NCI-H2085 | 0.428 |
| NCI-H1666 | 0.991 |
| NCI-H596 | 1.07 |
| NCI-H2087 | 0.149 |
| SK-MES-1 | 0.986 |
| H3255 | 0.942 |

| Cell Line | relative viability |
| --- | --- |
| COR-L23 | 0.728 |
| COR-L 105 | 0.896 |
| LOU-NH91 | 0.332 |
| ChaGo-K-1 | 0.589 |
| NCI-H2170 | 0.39 |
| NCI-H2405 | 0.741 |
| HOP-62 | 0.954 |
| HCC-44 | 0.884 |
| NCI-H522 | 1.22 |
| LU99A | 0.336 |
| BEN | 0.393 |
| HARA | 0.786 |
| SW 900 | 0.182 |
| NCI-H322M | 0.88 |
| NCI-H1792 | 0.406 |
| NCI-H1563 | 0.54 |

Same assay, conditions: first compound 0.3162 µM

| Cell Line | relative viability |
| --- | --- |
| NCI-H2342 | 0.642 |
| NCI-H1623 | 0.306 |
| NCI-H727 | 0.332 |
| NCI-H1650 | 0.19 |
| NCI-H1993 | 0.863 |
| SW 1573 | 0.323 |
